The values below come from US9050320B2, “Method for inducing lymphoid tissue and modulating intestinal homeostasis” (Institut Pasteur, priority 2009, dated 2015).

The test system of assay [1] is isolated lymphoid follicles (ILFs). Kind of assay: ILF formation in germfree mice given peptidoglycans in the drinking water. Type of assay: in vivo. The procedure: Peptidoglycans. Peptidoglycan were purified from E. coli strain MC1061 as previously described ^32. Highly purified PGN (total of 100 mg) was digested with mutanolysin (Sigma) ^33 to generate the entire range of muropeptides present in E. coli PGN (Supplementary FIG. 3b). Soluble muropeptides were separated by reverse phase HPLC, and the N-acetylglucosamyl-β1,4-N-acetylmuramyl-L-alanyl-D-γ-glytamyl-meso-diaminopimelate-D-alanine (GMtetraDAP) was collected and purity tested by a new HPLC analysis (Supplementary FIG. 3b). The nature of the GMtetraDAP was confirmed by MALDI-TOF mass spectrometry analysis as previously described ^33. Muramyldipeptide (MDP) was purchased from Sigma. Mice received MDP or GMtetraDAP in drinking water at a fixed concentration of 1 μM from the age of 2 weeks (Experiment I) or form birth (experiment II) for different periods of time.
Immunofluorescence histology. Intestines were opened and washed several times in PBS before fixation overnight at 4° C. in a fresh solution of 4% paraformaldehyde (Sigma) in PBS. The samples were then washed 1 day in PBS, incubated in a solution of 30% sucrose (Sigma) in PBS until the samples sank, embedded in OCT compound 4583 (Sakura Finetek), frozen in a bath of isopentane cooled with liquid nitrogen and stocked at −80° C. Frozen blocs were cut at 8 μm thickness and sections collected onto Superfrost/Plus slides (VWR). Slides were dried 1 hour and processed for staining, or stocked at −80° C. For staining, slides were first hydrated in PBS-XG, (PBS containing 0.1% triton X-100 and 1% normal bovine serum, VWR) for 5 min and blocked with 10% bovine serum in PBS-XG for 1 hour at room temperature. […] Slides were examined under an Axiolmager M1 fluorescence microscope (Zeiss) equipped with a CCD camera and images were processed with AxioVision software (Zeiss). For the quantification of CPs and ILFs, 10-20 sections were cut at regular intervals through the whole thickness of flat ileal or colonic fragments of 2 cm in length and stained. CPs and ILFs were then counted under a fluorescence microscope.

Assay [2] shares this test system. Kind of assay: ILFs in SPF mice treated from birth with antibiotics in drinking water. Type of assay: in vivo. Conditions: antibiotic in drinking water. The procedure: Antibodies, fusion proteins and antibiotics. Purified anti-CD11c (HL3) was purchased from BD Biosciences, phycoerythrin (PE)-, allophycocyanin (APC)- or biotin-conjugated anti-CD45R/B220 (RA3-6B2), and anti-CD45.2 (104) were purchased from eBiosciences, and purified anti-GFP (A-11122) and FITC-conjugated anti-rabbit polyclonal were purchased from Invitrogen. Neutralizing anti-CCL20 (114906) antibody was purchased from R&D Systems and 50-100 μg was injected i.p. in PBS twice a week. Human IgG1 and LTβR-Ig fusion protein have been previously described ^12; 100 μg protein was injected i.p. into pregnant mice 14.5 and 16.5 days after conception, or 50 μg protein was injected i.p. into newborn mice 1 day, 6 days and 12 days after birth, then 100 μg 15 days after birth. Vancomycin and colistin were purchased from Sigma and supplied to mice in the drinking water at a concentration of 500 mg/l and 1 g/l, respectively.
Immunofluorescence histology. […] Slides were examined under an Axiolmager M1 fluorescence microscope (Zeiss) equipped with a CCD camera and images were processed with AxioVision software (Zeiss). For the quantification of CPs and ILFs, 10-20 sections were cut at regular intervals through the whole thickness of flat ileal or colonic fragments of 2 cm in length and stained. CPs and ILFs were then counted under a fluorescence microscope.

The test system is the same in assay [3]. In words: ILF formation in germfree mice reconstituted with bacteria. Type of assay: in vivo. The note with it: adult germfree mice reconstituted, 8 weeks. How it is done:
Bacterial strains and culture. ASF bacteria include the Gram^+Clostridium propionicum (ASF 356), Lactobacillus acidophilus (ASF 360), Lactobacillus murinus (ASF 361), Eubacterium plexicaudatum (ASF 492), Firmicutes sp. (ASF 500) and Clostridium sp. (ASF 502), the Gram^−Mucispirillum schaedleri (ASF 457) and Bacteroides distasonis (ASF 519) (Supplementary FIG. 2) ^13,34, and were obtained from Taconic. The bacteria were cultured in anaerobic conditions on Schaedler agar (Difco laboratories) supplemented with 5% sterile sheep blood (Biorad) in an anaerobic Glove chamber containing a 5% CO2, 10% H2 and 85% N2 atmosphere (Jacomex). The media were pre-reduced by placing them inside the chamber 2 days prior to inoculation of bacteria. Cultures were incubated in the chamber at 37° C. for different periods of time (1-5 days) depending on the bacterial strain. […]
Bacterial colonization of germfree mice. […] Fecal pellets from inoculated mice were assessed for colonization by microscopic examination of smears and quantified by serial dilutions of stool spread on Schaedler agar plates or by quantitative PCR (qPCR). […] Mice were colonized to similar levels by strains MC1061 and MHD79 (˜2.5×10^9 cfu/g of feces) and analyzed 8 weeks after bacterial reconstitution. […]

In another assay the test system is Euprymna scolopes. The note with it: squid light organ; cited from earlier work.

Regarding `CC(=O)N[C@H]1[C@H](O[C@H]2[C@H](O[C@H](C)C(=O)N[C@@H](C)C(=O)N[C@H](CCC(=O)N[C@@H](CCC[C@@H](N)C(=O)O)C(=O)N[C@H](C)C(=O)O)C(=O)O)[C@@H](NC(C)=O)C(O)O[C@@H]2CO)O[C@H](CO)[C@@H](O)[C@@H]1O` (stereo partly drawn) [GMtetraDAP, N-acetylglucosamyl-β1,4-N-acetylmuramyl-L-alanyl-D-γ-glytamyl-meso-diaminopimelate-D-alanine], the “ILFs in sections from the ileum (histology)” value in assay [1] (8 weeks old germ free mice, in drinking water from birth) was “ILFs were numerous and showed some level of follicular organization”. The “ILFs in the colon” value in assay [1] (germfree mice, 1 μM in drinking water, 10 weeks of treatment starting from birth (Experiment II)) is listed as “Significant numbers of ILFs were also detected”. For the same compound, the “induction of ILFs in the ileum” value in assay [1] (germfree mice, 1 μM in drinking water, after 6 weeks of treatment) is “induced a significant number of ILFs, mostly iILFs”. On to `CN[C@H](CC(C)C)C(=O)N[C@H]1C(=O)N[C@@H](CC(N)=O)C(=O)N[C@H]2C(=O)N[C@H]3C(=O)N[C@H](C(=O)N[C@H](C(=O)O)c4cc(O)cc(O)c4-c4cc3ccc4O)[C@H](O)c3ccc(c(Cl)c3)Oc3cc2cc(c3O[C@@H]2O[C@H](CO)[C@@H](O)[C@H](O)[C@H]2O[C@H]2C[C@](C)(N)[C@H](O)[C@H](C)O2)Oc2ccc(cc2Cl)[C@H]1O` [vancomycin, Vancomycin], for which the “formation of ILFs” value in assay [2] is on record as “formed significant numbers of ILFs, but lower numbers than in control mice”. With Lactobacillus acidophilus, in assay [3], the “induction of ileal and colonic ILFs” value is on record as “induced no or few ILFs”. colistin: the “formation of ILFs” value in assay [2] is reported as “formed few ILFs”. In the case of tracheal cytotoxin [TCT], in the assay on Euprymna scolopes, the “hemocyte infiltration of crypts, epithelial apoptosis and morphogenesis” value is listed as “recapitulated by TCT alone”.
